Values joined by “and” are separate entries in the source; they are usually repeats but may differ in a detail not shown here. Equal values may be shown once.
How the values were obtained:
[1] = Dynamic light scattering of N-X-Phe-DAP/siRNA nanoparticles; type: physicochemical; conditions: for Diameter (nm), DLS: N-X-Phe-DAP/siRNA nanoparticles, 5 μM derivative, 30 nM siRNA, ± standard deviation
Description: Each N-X-Phe-DAP derivative (100 μM) was mixed with siRNA (600 nM) in H2O for 30 minutes, followed by dilution of this mixture into DMEM cell culture media to final concentrations of 5 μM N-X-Phe-DAP derivative and 30 nM siRNA. Dynamic light scattering (DLS) and transmission electron microscopy (TEM) were utilized to analyze the physical characteristics of the resulting N-X-Phe-DAP/siRNA nanoparticles (Table 2, FIG. 4). […] Average diameter (nm), determined by dynamic light scattering (DLS) and TEM imaging, is reported as the average of […] with the error reported as the standard deviation of the mean. Binding affinity (Kd) of each agent to siRNA was determined by a slot blot filtration assay with values reported as the average of three measurements and error reported as the standard deviation of the mean. […] (B) Diameter (nm) determined by TEM (n=9, ***p≤0.001 ****p≤0.0001).
Dynamic Light Scattering: N-X-Phe-DAP derivatives (100 μM) were complexed with siRNA (600 nM) in Ultrapure™ DNase/RNase-Free Distilled Water (Invitrogen 10977015) and allowed to incubate for 30 minutes at room temperature. These solutions were then diluted into water to give final concentrations of 5 μM Phe derivative and 30 nM siRNA. Dynamic light scattering measurements were taken using a DynaPro Plate Reader II. Diameter is reported as an average of 10 measurements using Dynamics software.

[2] = molecular target: FITC-siRNA; assay: Slot blot filtration binding affinity assay; conditions: binding to siRNA (FITC-siRNA); average of three measurements ± standard deviation
Description: The binding affinity (Kd) of N-X-Phe-DAP derivatives to siRNA was next characterized to determine how the chemical functionality of the Phe derivatives impacts siRNA interactions. Comparative binding affinity (Kd) of N-X-Phe-DAP derivatives to fluorescently labeled FITC-siRNA was determined using a slot blot filtration assay (Table 2). […] Therefore, the decrease in binding affinity of Fmoc-F5-Phe-DAP for siRNA is likely due to competition between siRNA binding and self-assembly.
Slot Blot Binding Affinity Measurements (see FIGS. 39-48): Nitrocellulose (Bio-Rad, #1620112) and nylon membranes (VWR, #95038-400) were soaked in 100 mM Tris-HCl buffer for 20 minutes. The membranes were then stacked on two sheets of Bio-Rad SF thick filter paper (#1620161) in a Bio-Rad SF 48-well slot blot apparatus. 200 μL of 100 mM Tris-HCl buffer was added to each well to test for even vacuum distribution and for membrane rehydration three times. N-X-Phe-DAP derivatives were prepared in concentrations ranging from 4000 μM to 0 μM and incubated with FITC-siRNA (6.5 μL, 1 μM) for 30 minutes in the dark. 40 μL of each sample, in addition to 200 μL Tris-HCl buffer was run in triplicate and the apparatus was covered with aluminum foil for 20 minutes. The vacuum was opened, allowing for samples in the wells to penetrate the membranes. After closing the vacuum, 200 μL of Tris-HCl buffer was added to rinse each well followed by re-opening of the vacuum three times. Membranes were then dried and imaged on Bio-Rad ChemiDoc MS. Fluorescence intensity density measurements were made using Image J. The fraction bound of siRNA was calculated using the following equation, where Initro is the fluorescence intensity measured from the nitrocellulose membrane and Inylon is the fluorescence intensity measured from the nylon membrane:
This equation is as follows where Y is the fraction bound, X is the N-X-Phe-DAP concentration (μM), Bmax is the maximum binding, Kd is the binding affinity, and h is the Hill slope: […]

[3] = test system: A549 cells; assay: MTT cytotoxicity assay; type: cell-based, human; conditions: normalized to naïve control, ± SEM
Description: A549 cells were dosed with 100 µM of these derivatives for 4 h (FIG. 7A), 24 h (FIG. 7B), and 48 h (FIG. 7C). FIG. 7 reports cell viability as percent viability of A549 cells normalized to naïve control. (A) Cell viability after 4 h dosing (n=3, *p≤0.05, **p≤0.01). (B) Cell viability after 24 h dosing (n=3, *p≤0.05, **p≤0.01). (C) Cell viability after 48 h dosing (n=3, *p≤0.05, **p≤0.01, ****p≤0.0001). […] An MTT assay was performed after dosing for 4 h, 24 h, 48 h, or 4 h with media change and additional 48 h incubation. Average values are reported with calculated standard error of the mean (SEM).
The cells will also recover after exposure to N-X-Phe-DAP derivatives under conditions that resemble knockdown experiments. Cells were dosed with N-X-Phe-DAP derivatives or Lipofectamine for 4 hours, after which the media was aspirated and replaced with DMEM cell culture media and incubated for an additional 48 hours (FIG. 8). This protocol mimics the gene knockdown experiments and acts as a better indication of how cytotoxicity may impact gene silencing measurements.
Sample Preparation for Cell-Based Experiments: For delivery analysis and functional knockdown, N-X-Phe-DAP derivatives (10 μL, 1 mM) or Lipofectamine 3000 (6 μL) was mixed with TTF-1 siRNA (Santa Cruz Biotechnology sc-36756, 6 μL, 10 μM) in Ultrapure™ DNase/RNase-Free Distilled Water (Invitrogen 10977015) to give a final volume of 100 μL. These mixtures were incubated for 30 minutes at room temperature, followed by dilution into 1×DMEM (Gibco 11965092, 1.9 mL). For cytotoxicity assays, N-X-Phe-DAP derivatives (10 μL, 1 mM) were diluted into 1×DMEM (Gibco 11965092, 1.9 mL).
MTT Cytotoxicity Assay: All cytotoxicity assays were performed in triplicate. A549 cells were seeded at a density of 2400 cells/well in a 96-well plate (200 μL) and grown to 70-90% confluency. Cells were washed with 1×PBS (200 μL), N-X-Phe-DAP derivatives were added (200 μL/well), and incubated 4 h, 24 h, or 48 h at 37° C., 5% CO2 or for 4 h at 37° C., 5% CO2 followed by washing with 1×PBS and addition of complete media containing 1×DMEM (Gibco 11965092), 10% fetal bovine serum (FBS, Invitrogen 26140087), and 1× antibiotic-antimycotic (Gibco 15240-062). A solution of thiazoyl blue tetrazolium bromide (MTT, 1 mg/mL) was prepared in 1×DMEM devoid of phenol red (Invitrogen 31053028). After the appropriate incubation time, cells were washed with 1×PBS, dosed with MTT (200 μL), and incubated an additional 1 h at 37° C., 5% C02 in the dark. The 96-well plate was centrifuged for 5 min at 4000 rpm, the media was aspirated, and DMSO (100 μL) was added to the wells. Absorbance measurements (550 nm) were taken on a Tecan Infinite M1000 Pro plate reader. Cell viability was then calculated and normalized to the naïve control.

SMILES | Diameter (nm), DLS [1] | Kd [2] | Cell Viability (%) 4 h Dosing [3] | Cell Viability (%) 24 h Dosing [3] | Cell Viability (%) 48 h Dosing [3] | Cell Viability (%) Media Change After 4 h Followed by 48 h Incubation [3] | diameter of siRNA nanoparticles by DLS and TEM measurements [1] | Cell Viability (%) 4 h Dosing ([3]; listed as Fmoc-Pyr-DAP) | Cell Viability (%) 24 h Dosing ([3]; listed as Fmoc-Pyr-DAP)
NCCCNC(=O)[C@H](Cc1ccccc1)NC(=O)Cc1cccc2ccccc12 [1-Nap-Phe-DAP] | 221 ± 26 nm | 293 µM | 65.3 ± 3.7% | 69.5 ± 5.9% | 45.1 ± 3.1% | 56.5 ± 1.1% |  |  | 
NCCCNC(=O)[C@H](Cc1ccccc1)NC(=O)Cc1ccc2ccccc2c1 [2-Nap-Phe-DAP] | 416 ± 33 nm | 186 µM | 50.4 ± 1.5% | 58.3 ± 6.0% | 44.3 ± 8.7% | 60.7 ± 1.6% |  |  | 
NCCCNC(=O)[C@H](Cc1ccccc1)NC(=O)OCc1ccccc1 [Cbz-Phe-DAP] | 94 ± 14 nm | 97 µM | 60.8 ± 3.8% | 69.8 ± 8.2% | 53.7 ± 3.0% | 50.2 ± 3.4% | ~100 nm |  | 
NCCCNC(=O)[C@H](Cc1ccccc1)NC(=O)C1CCCCC1 [Cyc-Phe-DAP] | 125 ± 74 nm | 179 ± 8 µM | 58.3 ± 9.2% | 59.6 ± 4.9% | 60.4 ± 2.6% | 67% and 66.5 ± 5.1% | ~100 nm |  | 
NCCCNC(=O)[C@H](Cc1ccccc1)NC(=O)CC1c2ccccc2-c2ccccc21 [Fm-Phe-DAP] | 139 ± 14 nm | 307 ± 34 µM | 60.7 ± 3.6% | 51.7 ± 4.4% | 26.7 ± 4.0% | 72.6 ± 7.4% |  |  | 
NCCCNC(=O)[C@H](Cc1cccc(F)c1)NC(=O)OCC1c2ccccc2-c2ccccc21 [Fmoc-3F-Phe-DAP] | 228 ± 18 nm | 131 µM | 59.9 ± 3.8% | 75.3 ± 5.0% | 42.0 ± 2.4% | 71.1 ± 6.3% |  |  | 
NCCCNC(=O)[C@H](Cc1c(F)c(F)c(F)c(F)c1F)NC(=O)OCC1c2ccccc2-c2ccccc21 [Fmoc-F5-Phe-DAP] | 202 ± 15 nm | 217 µM | 48.1 ± 5.9% |  |  | 54.2 ± 6.2% |  |  | 
NCCCNC(=O)[C@H](Cc1ccccc1)NC(=O)OCC1c2ccccc2-c2ccccc21 [Fmoc-Phe-DAP] | 156 ± 13 nm | 159 µM | 76.3 ± 2.8% | 96.5 ± 3.2% | 63.7 ± 5.1% | 76.1 ± 4.9% |  |  | 
CCCCCCC(=O)N[C@@H](Cc1ccccc1)C(=O)NCCCN [Hex-Phe-DAP] | 50 ± 6 nm | 183 ± 9 µM | 38.9 ± 3.7% | 66.0 ± 5.5% | 52.1 ± 4.5% | 53% and 53.1 ± 4.5% |  |  | 
NCCCNC(=O)[C@H](Cc1ccccc1)NC(=O)CCCc1ccc2ccc3cccc4ccc1c2c34 [Pyr-Phe-DAP] | 105 ± 8 nm | 32 µM | 17.2 ± 1.1% | 2.6 ± 0.8% |  | 22.3 ± 2.7% |  | less than 20% | < 3%

From patent US20260167972A1, “AMINO ACID DERIVATIVES AS NOVEL DELIVERY AGENTS FOR FUNCTIONAL DELIVERY OF OLIGONUCLEOTIDES” (University of Rochester, priority 2022, published 2026)
